From EP1641803B1, “THIENOPYRIMIDINE DERIVATIVES AS POTASSIUM CHANNEL INHIBITORS” (Xention Limited, priority 2003, dated 2004)

What was measured:
human Kv1.5 = target: T1, human Kv1.5 (Homo sapiens, UniProt P22460); assay: Kv1.5 Rb+ Efflux Assay; assay type: cell-based; settings: inhibition of 86Rb+ efflux through Kv1.5; cells stably transfected with human Kv1.5; 10 point concentration response curves n=2; normalised to 2.5mM 4 amino-pyridine block
T1 construct: expressed in transfected cells
Procedure: The pore of a potassium channel is permeable to other monovalent cations such as Rb^+ and Tl^+. Analysis of cellular efflux of potassium channel permeable ions enables potassium channel activity to be monitored directly. Cells stably transfected with cDNA for human Kv1.5 (in pEF6::VA-His-TOPO) were grown in Dulbecco's Modified Eagle media (DMEM) alpha supplemented with 10% Fetal Calf Serum (FCS), 20 µl/ml penicillin (5000U/ml) streptomycin (5000µg/ml), 10µl/ml [100x] glutamine, and blasticidin (7.5µg/ml). Cells were dispensed into 96 well cellstar TC plates and allowed to grow until a confluent monolayer was visible. On the morning of the assay run, cold media was aspirated using the TECAN plate washer, and a 50µl media spike containing 2µCi/ml (37kBq/ml) ^86Rb^+ added to each well containing cells using the Shallow-Well Matrix Platemate. Plates were placed in a incubator at 37°C for a minimum of 3 hours. Unloaded ^86Rb^+ in the "hot" media was aspirated and each well washed 4x250µl with Earls Balanced Salt Solution (EBSS) which contained 5mM KCl, 140mM NaCl, 2mM CaCl2, 1mM MgSO4, 10mM HEPES, and 5mM glucose, pH 7.4, 290-300 mOsm. These cells were then pre-incubated with 50µl of EBSS +/- test compounds for 10 minutes at room temperature. After the 10 minute incubation, 50µl of modified EBSS which contained 145mM KCl, 2mM CaCl2, 1mM MgSO4, 10mM HEPES, 5mM glucose, pH 7.4, 290-300 mOsm, was added, and the cells were incubated for a further 10 minutes at room temperature. The high KCl EBSS was used to depolarise cells to a membrane potential that would activate Kv1.5 channels. After the final incubation 80µl/100µl of the reaction from each well was transferred to equivalent wells in a Packard "Optiplate" white 96 well plate and counted in a Packard TopCount liquid scintillation counter by Cerenkov emission. Percentage inhibition ^86Rb^+ efflux through Kv1.5 was calculated by normalisation to 2.5mM 4 amino-pyridine control block of Kv1.5. Alternatively cells were loaded with ^85Rb^+ and quantified by atomic absorption spectroscopy. IC50 determinations were derived from 10 point concentration response curves n=2 using the method described above. Data was fitted as variable slope sigmoidal fit using Graphpad Prism (V3.02) software.

hKv1.5 = hKv1.5 (Homo sapiens, UniProt P22460); assay: Kv1.5 Autopatch Electrophysiology (whole cell patch-clamp); assay type: cell-based; settings: compound at 1µM, room temperature (22-24°C), held at -80mV, step to 0mV for 1000ms, total charge measured
Summary of the method: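 Whole-cell automated patch-clamp at 22-24°C, compounds tested at 1µM in external bather (KCl/K-gluconate, pH 7.4; KCl/EGTA pipette). Cells held at -80mV and stepped to 0mV for 1000ms every 5s; only cells with IK > 500 pA and Rseries ≤18 MΩ used. Read-out: total charge over the whole step.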

Chain of hKv1.5 (P22460 whole entry): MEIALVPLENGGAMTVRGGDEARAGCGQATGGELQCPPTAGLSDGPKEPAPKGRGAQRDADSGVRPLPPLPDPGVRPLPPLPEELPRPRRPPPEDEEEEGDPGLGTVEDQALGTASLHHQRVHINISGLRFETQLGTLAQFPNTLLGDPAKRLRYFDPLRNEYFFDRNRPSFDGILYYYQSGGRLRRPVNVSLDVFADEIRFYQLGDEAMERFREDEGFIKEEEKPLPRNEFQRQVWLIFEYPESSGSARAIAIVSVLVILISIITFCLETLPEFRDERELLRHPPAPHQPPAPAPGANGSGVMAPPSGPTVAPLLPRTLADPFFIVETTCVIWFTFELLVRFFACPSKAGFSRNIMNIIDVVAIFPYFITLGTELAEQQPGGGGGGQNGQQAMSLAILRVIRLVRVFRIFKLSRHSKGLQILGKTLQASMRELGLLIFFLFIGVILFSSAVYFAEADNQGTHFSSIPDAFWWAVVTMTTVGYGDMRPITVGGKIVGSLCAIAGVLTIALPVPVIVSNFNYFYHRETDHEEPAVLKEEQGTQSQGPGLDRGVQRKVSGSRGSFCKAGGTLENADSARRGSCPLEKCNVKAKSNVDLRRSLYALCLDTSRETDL
T1 sequence (P22460 whole entry): as above

| IC50 (human Kv1.5) | inhibition at 1 µM (hKv1.5) | SMILES |
| --- | --- | --- |
| 1.52 µM | 95% | Clc1cccc(-c2csc3ncnc(NCc4ccccn4)c23)c1 [Example 321, [5-(3-Chlorophenyl)-thieno[2,3-d]pyrimidin-4-yl]-pyridin-2-ylmethyl-amine] |
| 7.63 µM | 87% | OCCNc1nc(NCc2ccccn2)c2c(-c3ccc(F)cc3)csc2n1 [Example 212, 2-{5-(4-Fluorophenyl)-4-[(pyridin-2-ylmethyl)-amino]-thieno[2,3-d]pyrimidin-2-ylamino}-ethanol] |
| 2.54 µM | 90.8% | Clc1ccc(-c2csc3ncnc(NCc4ccccn4)c23)cc1 [Example 325, [5-(4-Chlorophenyl)-thieno[2,3-d]pyrimidin-4-yl]-pyridin-2-ylmethyl-amine] |
| 3.33 µM | 96% | CCOC(=O)Cc1nc(NCc2ccco2)c2c(-c3ccccc3)csc2n1 [Example 238, {4-[(Furan-2-ylmethyl)-amino]-5-phenyl-thieno[2,3-d]pyrimidin-2-yl}-acetic acid ethyl ester] |
| 0.04 µM | 94% | c1ccc(CNc2ncnc3scc(-c4ccc5cc[nH]c5c4)c23)nc1 [Example 323, [5-(1H-Indol-6-yl)-thieno[2,3-d]pyrimidin-4-yl]-pyridin-2-ylmethyl-amine] |
| 42.5 µM | 97.2% | Fc1ccc(-c2csc3nc(N4CCOCC4)nc(NCc4ccccn4)c23)cc1 [Example 207, [5-(4-Fluorophenyl)-2-morpholin-4-yl-thieno[2,3-d]pyrimidin-4-yl]-pyridin-2-ylmethyl-amine] |
| 2.9 µM | 98.3% | FC(F)(F)c1ccc(-c2csc3ncnc(NCc4ccccn4)c23)cc1 [Example 313, Pyridin-2-ylmethyl-[5-(4-trifluoromethyl-phenyl)-thieno[2,3-d]pyrimidin-4-yl]-amine] |

Second part, the compound before the results:

| SMILES | IC50 (human Kv1.5) | inhibition at 1 µM (hKv1.5) |
| --- | --- | --- |
| CNc1nc(NCc2ccccn2)c2c(-c3ccc(F)cc3)csc2n1 [Example 204, 5-(4-Fluorophenyl)-N^2-methyl-N^4-pyridin-2-ylmethyl-thieno[2,3-d]pyrimidine-2,4-diamine] | 4.7 µM | 97.9% |
| c1ccc(COc2nc(NCc3ccco3)c3c(-c4ccccc4)csc3n2)cc1 [Example 195, (2-Benzyloxy-5-phenyl-thieno[2,3-d]pyrimidin-4-yl)-furan-2-ylmethyl-amine] | 6.39 µM | 90% |
| O=[N+]([O-])c1ccc(CNc2ncnc3scc(-c4cccs4)c23)cc1 [Example 93, (4-Nitro-benzyl)-(5-thiophen-2-yl-thieno[2,3-d]pyrimidin-4-yl)-amine] | > 30 µM | 44% |
| Cc1ccc(-c2csc3ncnc(NCc4ccco4)c23)cc1 [Example 126, Furan-2-ylmethyl-(5-p-tolyl-thieno[2,3-d]pyrimidin-4-yl)-amine] | 0.47 µM | 83.4% |
| COC(=O)C1CCN(c2nc(NCc3ccccn3)c3c(-c4ccc(F)cc4)csc3n2)CC1 [Example 201, 1-{5-(4-Fluorophenyl)-4-[(pyridin-2-ylmethyl)-amino]-thieno[2,3-d]pyrimidin-2-yl}-piperidine-4-carboxylic acid methyl ester] | 15.9 µM | 98.2% |
| CN(Cc1ccco1)c1ncnc2scc(-c3cccs3)c12 [Example 100, Furan-2-ylmethyl-methyl-(5-thiophen-2-yl-thieno[2,3-d]pyrimidin-4-yl)-amine] | 9.71 µM | 19.9% |
| Brc1sc2ncnc(NCc3ccco3)c2c1-c1ccccc1 [Example 165, (6-Bromo-5-phenyl-thieno[2,3-d]pyrimidin-4-yl)-furan-2-ylmethyl-amine] | 1.6 µM | 91% |
| OCCC1CCN(c2nc(NCc3ccccn3)c3c(-c4ccccc4)csc3n2)CC1 [Example 206, 2-(1-{5-Phenyl-4-[(pyridin-2-ylmethyl)-amino]-thieno[2,3-d]pyrimidin-2-yl}-piperidin-4-yl)-ethanol] | 3.41 µM | 97.5% |
